Laboratory results: ChEMBL document CHEMBL1127068, “Selective inhibition of mammalian lanosterol 14 alpha-demethylase: a possible strategy for cholesterol lowering” (J Med Chem, 1993)
Values joined by “and” are separate entries in the source; they are usually repeats but may differ in a detail not shown here. Identical values can stand only once.

What was measured:
Cricetinae gen. sp. [1] = experiment: Percentage lowering of the total serum cholesterol in male hamsters at a dose of 10 […] orally administered for 3 days; type: functional, Cricetulus griseus
Cricetinae gen. sp. [2] = experiment: Effect on total serum cholesterol in male hamsters at a dose of 30 mg/kg orally administered for 3 days; type: functional, Cricetulus griseus; settings: route oral
[3] = molecular target: T1, Steroid 17-alpha-hydroxylase/17,20 lyase (Homo sapiens, UniProt P05093); experiment: Binding affinity for progesterone 17-alpha,20-lyase
T1 sequence (P05093 whole entry): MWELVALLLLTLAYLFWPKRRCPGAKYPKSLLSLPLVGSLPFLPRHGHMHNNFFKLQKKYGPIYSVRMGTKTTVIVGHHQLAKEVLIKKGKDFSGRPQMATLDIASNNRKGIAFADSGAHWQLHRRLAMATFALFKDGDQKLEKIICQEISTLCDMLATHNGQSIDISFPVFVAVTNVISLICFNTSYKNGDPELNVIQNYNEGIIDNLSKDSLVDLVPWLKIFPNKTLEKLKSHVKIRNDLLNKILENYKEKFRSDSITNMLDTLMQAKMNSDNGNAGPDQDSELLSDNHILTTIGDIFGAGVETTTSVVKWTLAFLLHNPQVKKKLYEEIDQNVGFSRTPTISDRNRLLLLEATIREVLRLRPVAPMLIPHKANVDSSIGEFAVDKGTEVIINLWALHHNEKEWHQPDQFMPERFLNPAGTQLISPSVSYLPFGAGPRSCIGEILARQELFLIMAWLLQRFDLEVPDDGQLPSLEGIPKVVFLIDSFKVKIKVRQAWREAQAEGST

Aromatase = molecular target: T2, Aromatase (Homo sapiens, UniProt P11511); experiment: Binding affinity for Cytochrome P450 19A1
T2 sequence (P11511 whole entry): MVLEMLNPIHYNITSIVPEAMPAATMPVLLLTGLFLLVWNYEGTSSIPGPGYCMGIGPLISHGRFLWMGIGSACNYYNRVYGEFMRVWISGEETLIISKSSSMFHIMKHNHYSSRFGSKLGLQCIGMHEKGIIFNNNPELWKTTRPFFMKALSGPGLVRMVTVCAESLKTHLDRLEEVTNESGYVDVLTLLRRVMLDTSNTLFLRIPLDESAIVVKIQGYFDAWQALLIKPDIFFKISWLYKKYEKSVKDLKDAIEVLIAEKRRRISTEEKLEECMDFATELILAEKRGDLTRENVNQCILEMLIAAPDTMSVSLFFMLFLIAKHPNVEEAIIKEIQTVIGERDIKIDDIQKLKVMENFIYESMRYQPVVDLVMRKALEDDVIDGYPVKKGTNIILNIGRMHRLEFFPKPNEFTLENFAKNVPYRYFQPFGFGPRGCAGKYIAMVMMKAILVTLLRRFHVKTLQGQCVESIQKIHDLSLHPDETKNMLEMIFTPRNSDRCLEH

[4] = molecular target: T1, Steroid 17-alpha-hydroxylase/17,20 lyase; experiment: Binding affinity for […] 17-alpha-hydroxylase
Cricetinae gen. sp. [5] = experiment: Effect on total serum cholesterol in male hamsters at a dose of 10 mg/kg orally administered for 3 days; type: functional, Cricetulus griseus; settings: route oral
Cytochrome P450 3A4 = Cytochrome P450 3A4 (Homo sapiens, UniProt P08684); experiment: Binding affinity for progesterone 6-beta-hydroxylase of hepatic microsomes; type: ADME
Sequence of Cytochrome P450 3A4 (P08684 whole entry): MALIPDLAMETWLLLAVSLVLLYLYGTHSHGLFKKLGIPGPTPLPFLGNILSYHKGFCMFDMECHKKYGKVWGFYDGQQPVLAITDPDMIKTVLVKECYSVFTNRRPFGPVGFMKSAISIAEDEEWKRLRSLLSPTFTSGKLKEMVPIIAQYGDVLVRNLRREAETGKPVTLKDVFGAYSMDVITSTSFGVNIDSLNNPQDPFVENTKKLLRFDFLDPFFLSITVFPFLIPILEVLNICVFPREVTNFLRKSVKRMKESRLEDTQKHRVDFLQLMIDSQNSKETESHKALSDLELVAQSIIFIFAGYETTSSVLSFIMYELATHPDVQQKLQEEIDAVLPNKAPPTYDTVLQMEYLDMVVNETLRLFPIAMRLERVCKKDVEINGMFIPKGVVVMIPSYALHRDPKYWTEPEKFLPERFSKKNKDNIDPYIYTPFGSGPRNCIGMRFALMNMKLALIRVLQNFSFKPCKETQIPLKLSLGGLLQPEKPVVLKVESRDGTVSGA

Cricetinae gen. sp. [6] = experiment: Effect on total serum cholesterol in male hamsters at a dose of 100 mg/kg orally administered for 3 days; type: functional, Cricetulus griseus; settings: route oral
Cricetinae gen. sp. [7] = experiment: Percentage lowering of the total serum cholesterol in male hamsters at a dose of 30 mg/dL orally administered for 3 days; type: functional, Cricetulus griseus
Cricetinae gen. sp. [8] = experiment: Percentage lowering of the total serum cholesterol in male hamsters at a dose of 100 […] orally administered for 3 days; type: functional, Cricetulus griseus
Homo sapiens = species on record: Homo sapiens; experiment: Inhibition of cellular cholesterol biosynthesis using human fibroblasts in tissue culture; type: functional, organism-based
[9] = molecular target: T3, Cytochrome P450 11B1, mitochondrial (Homo sapiens, UniProt P15538); experiment: Binding affinity for corticoid 11-beta-hydroxylase
T3 sequence (P15538 whole entry): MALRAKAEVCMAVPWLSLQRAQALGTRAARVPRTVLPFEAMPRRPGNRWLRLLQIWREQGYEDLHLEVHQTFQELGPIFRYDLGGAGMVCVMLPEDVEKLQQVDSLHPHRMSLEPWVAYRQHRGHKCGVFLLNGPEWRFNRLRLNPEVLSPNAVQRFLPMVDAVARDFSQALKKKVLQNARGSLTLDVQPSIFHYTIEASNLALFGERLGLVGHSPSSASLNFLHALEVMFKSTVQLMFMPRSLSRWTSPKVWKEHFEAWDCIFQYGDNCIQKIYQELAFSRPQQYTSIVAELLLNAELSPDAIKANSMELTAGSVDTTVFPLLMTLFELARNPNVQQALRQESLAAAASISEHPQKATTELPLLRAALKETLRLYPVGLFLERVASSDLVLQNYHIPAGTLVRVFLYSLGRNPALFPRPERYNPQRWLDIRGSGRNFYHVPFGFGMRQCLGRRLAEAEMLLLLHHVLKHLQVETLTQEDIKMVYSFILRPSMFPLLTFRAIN

Cricetinae gen. sp. [10] = experiment: Effect on total serum cholesterol in male hamsters at a dose of 10 mg/kg orally administered for 14 days; type: functional, Cricetulus griseus; settings: route oral
Cricetinae gen. sp. [11] = experiment: Percentage lowering of the total serum cholesterol in male hamsters at a dose of 200 […] orally administered for 14 days; type: functional, Cricetulus griseus
Cricetinae gen. sp. [12] = experiment: Percentage lowering of the total serum cholesterol in male hamsters at a dose of 25 mg/dL orally administered for 14 days; type: functional, Cricetulus griseus
Cricetinae gen. sp. [13] = experiment: Effect on total serum cholesterol in male hamsters at a dose of 25 mg/kg orally administered for 14 days; type: functional, Cricetulus griseus; settings: route oral
Cricetinae gen. sp. [14] = experiment: Effect on total serum cholesterol in male hamsters at a dose of 100 mg/kg orally administered for 14 days; type: functional, Cricetulus griseus; settings: route oral
Cricetinae gen. sp. [15] = experiment: Effect on total serum cholesterol in male hamsters at a dose of 50 mg/kg orally administered for 14 days; type: functional, Cricetulus griseus; settings: route oral
Cricetinae gen. sp. [16] = experiment: Percentage lowering of the total serum cholesterol in male hamsters at a dose of 5 mg/dL orally administered for 14 days; type: functional, Cricetulus griseus
Cricetinae gen. sp. [17] = experiment: Percentage lowering of the total serum cholesterol in male hamsters at a dose of 150 […] orally administered for 14 days; type: functional, Cricetulus griseus
Cricetinae gen. sp. [18] = experiment: Percentage lowering of the total serum cholesterol in male hamsters at a dose of 10 […] orally administered for 14 days; type: functional, Cricetulus griseus
Cricetinae gen. sp. [19] = experiment: Effect on total serum cholesterol in male hamsters at a dose of 150 mg/kg orally administered for 14 days; type: functional, Cricetulus griseus; settings: route oral
Cricetinae gen. sp. [20] = experiment: Percentage lowering of the total serum cholesterol in male hamsters at a dose of 50 mg/dL orally administered for 14 days; type: functional, Cricetulus griseus
Cricetinae gen. sp. [21] = experiment: Effect on total serum cholesterol in male hamsters at a dose of 200 mg/kg orally administered for 14 days; type: functional, Cricetulus griseus; settings: route oral
Cricetinae gen. sp. [22] = experiment: Effect on total serum cholesterol in male hamsters at a dose of 5 mg/kg orally administered for 14 days; type: functional, Cricetulus griseus; settings: route oral
Cricetinae gen. sp. [23] = experiment: Percentage lowering of the total serum cholesterol in male hamsters at a dose of 100 […] orally administered for 14 days; type: functional, Cricetulus griseus
Cricetinae gen. sp. [24] = experiment: Effect on total serum cholesterol in male hamsters at a dose of 75 mg/kg orally administered for 14 days; type: functional, Cricetulus griseus; settings: route oral
Cricetinae gen. sp. [25] = experiment: Percentage lowering of the total serum cholesterol in male hamsters at a dose of 75 mg/dL orally administered for 14 days; type: functional, Cricetulus griseus
Cricetinae gen. sp. [26] = experiment: Effect on total serum cholesterol in male hamsters at a dose of 60 mg/kg orally administered for 3 days; type: functional, Cricetulus griseus; settings: route oral
Cricetinae gen. sp. [27] = experiment: Percentage lowering of the total serum cholesterol in male hamsters at a dose of 60 […] orally administered for 3 days; type: functional, Cricetulus griseus
Cricetinae gen. sp. [28] = experiment: Percentage increase of the total serum cholesterol in male hamsters at a dose of 25 […] orally administered for 14 days; type: functional, Cricetulus griseus
Cricetinae gen. sp. [29] = experiment: Percentage increase of the total serum cholesterol in male hamsters at a dose of 10 […] orally administered for 14 days; type: functional, Cricetulus griseus

Nc1ccc(SC[C@H]2CO[C@@](CCc3ccc(Cl)cc3)(Cn3ccnc3)O2)cc1
Lowering (Cricetinae gen. sp. [1]): 5%
TC (Cricetinae gen. sp. [2]): 96.4 mg/dL
Ki [3]: 54 nM
Ki (Aromatase): 13 nM
Ki [4]: 109 nM
TC (Cricetinae gen. sp. [5]): 105.7 mg/dL
Ki (Cytochrome P450 3A4): 33 nM
TC (Cricetinae gen. sp. [6]): 86 mg/dL
Lowering (Cricetinae gen. sp. [7]): 13%
Lowering (Cricetinae gen. sp. [8]): 22%
IC50 (Homo sapiens): 8 nM
Ki [9]: 15 nM

CC[C@H](C)C(=O)O[C@H]1C[C@@H](C)C=C2C=C[C@H](C)[C@H](CC[C@@H]3C[C@@H](O)CC(=O)O3)[C@H]21 [LOVASTATIN]
TC (Cricetinae gen. sp. [10]): 102.8 mg/dL
Lowering (Cricetinae gen. sp. [11]): 38%
Lowering (Cricetinae gen. sp. [12]): 6% and 10%
TC (Cricetinae gen. sp. [13]; 25 mg/kg): 111.2 mg/dL and 114 mg/dL
TC (Cricetinae gen. sp. [14]): 94.9 mg/dL
TC (Cricetinae gen. sp. [15]; 50 mg/kg): 99.4 mg/dL and 102 mg/dL
Lowering (Cricetinae gen. sp. [16]): 5%
Lowering (Cricetinae gen. sp. [17]): 37%
Lowering (Cricetinae gen. sp. [18]): 13%
TC (Cricetinae gen. sp. [19]): 80.3 mg/dL
Lowering (Cricetinae gen. sp. [20]): 16% and 19%
TC (Cricetinae gen. sp. [21]): 79.5 mg/dL
TC (Cricetinae gen. sp. [22]): 112.2 mg/dL
Lowering (Cricetinae gen. sp. [23]): 26%

Cl.Cl.Cl.Nc1ccc(SC[C@@H]2CO[C@](CCc3ccc(Cl)cc3)(Cn3ccnc3)O2)cc1
Lowering (Cricetinae gen. sp. [12]): 8%
TC (Cricetinae gen. sp. [13]): 117.4 mg/dL
TC (Cricetinae gen. sp. [14]): 65.6 mg/dL
TC (Cricetinae gen. sp. [15]): 88.9 mg/dL
TC (Cricetinae gen. sp. [24]): 76 mg/dL
Lowering (Cricetinae gen. sp. [20]): 30%
Lowering (Cricetinae gen. sp. [23]): 49%
Lowering (Cricetinae gen. sp. [25]): 40%

Nc1ccc(SC[C@@H]2CO[C@@](CCc3ccc(Cl)cc3)(Cn3ccnc3)O2)cc1
TC (Cricetinae gen. sp. [10]): 125.2 mg/dL
TC (Cricetinae gen. sp. [13]): 125.8 mg/dL
TC (Cricetinae gen. sp. [14]): 113.3 mg/dL
TC (Cricetinae gen. sp. [26]): 120.4 mg/dL
TC (Cricetinae gen. sp. [15]): 112.4 mg/dL
Lowering (Cricetinae gen. sp. [27]): 15%
Lowering (Cricetinae gen. sp. [20]): 6%
Increase (Cricetinae gen. sp. [28]): 6%
Increase (Cricetinae gen. sp. [29]): 6%
Lowering (Cricetinae gen. sp. [23]): 4%
